The results in this text go back to ChEMBL document CHEMBL5523667, “Blood-stage antimalarial activity, favourable metabolic stability and in vivo toxicity of novel piperazine linked 7-chloroquinoline-triazole conjugates” (Eur J Med Chem, 2024).

Activity calls are given as the source filed them. The rule behind the calls is not given here. A value given as a limit tells only on which side of the number the result lay.

The subject of data set [1] is Plasmodium falciparum. As to the kind of experiment: Antimalarial activity against chloroquine-sensitive Plasmodium falciparum NF54 assessed as inhibition of parasite growth by lactate dehydrogenase assay. It counts as functional, organism-based.
A further data set has as its system Hemozoin. As to the kind of experiment: Inhibition of beta-hematin formation in Plasmodium falciparum by UV-visible SpectraMax P340 plate reader analysis.
The target in another data set is T1, Falcipain 2 (Plasmodium falciparum, UniProt Q9N6S8).
T1 sequence (Q9N6S8 whole entry): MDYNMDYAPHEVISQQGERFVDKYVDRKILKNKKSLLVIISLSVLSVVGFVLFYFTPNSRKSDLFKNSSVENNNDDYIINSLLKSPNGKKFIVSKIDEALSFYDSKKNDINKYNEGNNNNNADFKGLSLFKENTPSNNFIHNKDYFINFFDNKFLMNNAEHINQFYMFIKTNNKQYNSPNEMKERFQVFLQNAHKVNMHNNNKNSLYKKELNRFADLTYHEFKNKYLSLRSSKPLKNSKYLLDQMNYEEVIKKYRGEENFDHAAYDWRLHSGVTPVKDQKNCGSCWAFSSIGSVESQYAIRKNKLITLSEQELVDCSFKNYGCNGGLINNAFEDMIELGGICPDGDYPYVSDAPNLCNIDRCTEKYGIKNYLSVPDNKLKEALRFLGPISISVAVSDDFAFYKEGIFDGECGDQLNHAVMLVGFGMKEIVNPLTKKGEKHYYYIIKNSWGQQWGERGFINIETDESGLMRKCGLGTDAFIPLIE
Put plainly: Binding affinity to N-terminal 6His-tagged recombinant Plasmodium falciparum FP2 expressed in Escherichia coli M15 assessed as dissociation constant incubated for 15 mins in presence of lysine reactive dye by microscale thermophoretic analysis. On the technique in general: In MST a laser heats a spot of the sample, and binding alters the fluorescence response.

Data set [2] relates to Plasmodium falciparum. As to the kind of experiment: Antimalarial activity against schizont stage Plasmodium falciparum infected in erythrocytes assessed as reduction in proteolytic activity at 5 uM pre-incubated for 1 hr followed by Z-Phe-Arg-AMC addition and measured after 5 to 10 mins by confocal microscopic analysis relative to control. Format: functional, Erythrocyte. Also on record: scale not given: the % may be the effect or the level left. The conditions noted are these: time 65-70 min.

In data set [3] the test system is Plasmodium falciparum. Put plainly: Antimalarial activity against chloroquine-sensitive Plasmodium falciparum 3D7 assessed as growth inhibition at 1 to 2 uM. Format: functional, organism-based. The conditions noted are these: dose 1-2 µM.
In data set [4] the test system is Plasmodium falciparum. Put plainly: Antimalarial activity against chloroquine-sensitive Plasmodium falciparum 3D7 assessed as growth inhibition at 1 uM relative to control. It counts as functional. More on the design: scale not given: the % may be the effect or the level left.
The subject of data set [5] is Plasmodium falciparum. Put plainly: Antimalarial activity against chloroquine-resistant Plasmodium falciparum K1 assessed as inhibition of parasite growth by lactate dehydrogenase assay. It counts as functional, organism-based.
Data set [6] can be described thus: Cytotoxicity against CHO cells assessed as reduction in cell viability by MTT assay. It counts as toxicity, cell-based. To be noted: Chinese hamster (Cricetulus griseus). (In general: Tetrazolium assays rely on reduction of a dye to a coloured formazan, in cell work by metabolically active cells.)
Data set [7] has as its system Plasmodium falciparum. As to the kind of experiment: Resistance index, ratio of IC50 for antimalarial activity against chloroquine-resistant Plasmodium falciparum K1 to IC50 for antimalarial activity against chloroquine-sensitive Plasmodium falciparum NF54. Format: functional.
A short description of data set [8]: Selectivity index, ratio of IC50 for cytotoxicity against CHO cells to IC50 for antimalarial activity against chloroquine-sensitive Plasmodium falciparum NF54. Format: toxicity, cell-based. To be noted: hamster, CHO cells versus Plasmodium falciparum NF54; read-out: Ratio IC50.
Data set [9] deals with Plasmodium falciparum. As to the kind of experiment: Antimalarial activity against synchronized ring stage Plasmodium falciparum assessed as accumulation of free heme at 25 to 100 nM incubated for 20 hrs by absorbance based analysis. Format: functional, organism-based. The conditions noted are these: dose 25-100 nM.
For data set [10], the system named is Plasmodium falciparum. As to the kind of experiment: Antimalarial activity against synchronized ring stage Plasmodium falciparum assessed as reduction in hemozoin level at 25 to 100 nM incubated for 20 hrs by absorbance based analysis. It counts as functional, organism-based. To be noted: dose 25-100 nM.
Data set [11] deals with Plasmodium falciparum. As to the kind of experiment: Antimalarial activity against chloroquine-sensitive Plasmodium falciparum 3D7 assessed as growth inhibition at 1 uM. It counts as functional, organism-based.

In the case of `Cc1cccc(NC(=O)Cn2cc(CN3CCN(c4ccnc5cc(Cl)ccc45)CC3)nn2)c1`, the IC50 was found to be 3.5 µM in the data set with Plasmodium falciparum [1] and 17.2 µM with Hemozoin.
On to `CC(C)C[C@H](NC(=O)[C@H]1O[C@@H]1C(=O)O)C(=O)NCCCCN=C(N)N` [E-64], for which the Kd on Falcipain 2 turned out to be 1.18 µM. Also, the Activity with Plasmodium falciparum [2] turned out to be 100%.
Consider `COc1ccccc1NC(=O)Cn1cc(CN2CCN(c3ccnc4cc(Cl)ccc34)CC2)nn1`, for which the IC50 came out at 3.26 µM in the data set on Plasmodium falciparum [1] and 14 µM in the data set on Hemozoin.
For `Clc1ccc2c(N3CCN(Cc4cn(-c5ccnc6ccccc56)nn4)CC3)ccnc2c1`, the outcome in the data set with Plasmodium falciparum [3] was Active.
The same measure, in the same setting: with `Clc1ccc2c(N3CCN(Cc4cn(-c5ccnc6cc(Cl)ccc56)nn4)CC3)ccnc2c1` the entry was “Active”.
For `Cc1ccccc1-n1cc(CN2CCN(c3ccnc4cc(Cl)ccc34)CC2)nn1`, the Activity in the data set on Plasmodium falciparum [4] was >50%.
As for `O=C(Cn1cc(CN2CCN(c3ccnc4cc(Cl)ccc34)CC2)nn1)Nc1ccccc1Cl`, the IC50 in the data set on Plasmodium falciparum [5] was 5.9 µM; in data set [6], 126 µM; in the data set on Plasmodium falciparum [1], 1.79 µM; in the data set with Hemozoin, 19.2 µM. The “Ratio IC50” value with Plasmodium falciparum [7] was determined as 3.29. Further, in data set [8], the selectivity ratio was found to be 70.3.
For `Clc1ccc2c(N3CCN(Cc4cn(-c5cccc6ccccc56)nn4)CC3)ccnc2c1`, in the data set on Plasmodium falciparum [3], the result was inactive.
With `O=C(Cn1cc(CN2CCN(c3ccnc4cc(Cl)ccc34)CC2)nn1)Nc1ccccc1`, the results for the IC50 with Plasmodium falciparum [1] and in the data set on Hemozoin were 4.98 µM and 19.8 µM, respectively.
The like results for `COc1cccc(NC(=O)Cn2cc(CN3CCN(c4ccnc5cc(Cl)ccc45)CC3)nn2)c1` were, in that order, 3.56 µM and 17.4 µM.
The like results for `O=C(Cn1cc(CN2CCN(c3ccnc4cc(Cl)ccc34)CC2)nn1)Nc1ccc([N+](=O)[O-])cc1` were, in that order, 3.23 µM and 28.9 µM.
The like results for `COc1ccc(NC(=O)Cn2cc(CN3CCN(c4ccnc5cc(Cl)ccc45)CC3)nn2)cc1` were, in that order, 6.73 µM and 19.7 µM.
`O=C(OCc1cn(-c2ccnc3cc(Cl)ccc23)nn1)c1cccc([N+](=O)[O-])c1`: in the data set on Plasmodium falciparum [3], the outcome was inactive.
In the case of `O=C(Cn1cc(CN2CCN(c3ccnc4cc(Cl)ccc34)CC2)nn1)Nc1ccc(Br)cc1`, the figures for the IC50 with Plasmodium falciparum [1] and in the data set on Hemozoin were 6.45 µM and 19.4 µM, respectively.
For `CCN(CC)CCCC(C)Nc1ccnc2cc(Cl)ccc12` (configuration not stated) [CHLOROQUINE], the IC50 in the data set with Hemozoin stood at 23.3 µM. Also, the result in the data set with Plasmodium falciparum [9] and in the data set with Plasmodium falciparum [10] was Active.
As to `CCN(CC)Cc1cc(Nc2ccnc3cc(Cl)ccc23)ccc1O` [AMODIAQUINE], the IC50 in the data set with Hemozoin worked out at 10.9 µM.
On to `O=C(Cn1cc(CN2CCN(c3ccnc4cc(Cl)ccc34)CC2)nn1)Nc1ccc(Cl)cc1`, for which the IC50 in the data set on Plasmodium falciparum [1] is 4.68 µM; with Hemozoin it was 8.4 µM.
As to `O=C(Cn1cc(CN2CCN(c3ccnc4cc(Cl)ccc34)CC2)nn1)Nc1ccc(F)cc1`, the IC50 was 3.08 µM in the data set with Plasmodium falciparum [5], 326 µM in data set [6], 1.74 µM with Plasmodium falciparum [1] and 20.6 µM in the data set with Hemozoin. Moreover, in the data set on Plasmodium falciparum [7], the “Ratio IC50” value amounted to 1.77. The selectivity ratio in data set [8] worked out at 188.
As for `O=C(Cn1cc(CN2CCN(c3ccnc4cc(Cl)ccc34)CC2)nn1)Nc1cccc(F)c1`, the IC50 was 2.92 µM with Plasmodium falciparum [5], 146 µM in [6], 1.69 µM in the data set on Plasmodium falciparum [1] and 10.6 µM with Hemozoin. Besides, the “Ratio IC50” value in the data set with Plasmodium falciparum [7] was determined as 1.7. In addition, the selectivity ratio in [8] was 86.5.
On to `O=C(Cn1cc(CN2CCN(c3ccnc4cc(Cl)ccc34)CC2)nn1)Nc1cccc(Cl)c1`, for which the IC50 with Plasmodium falciparum [5] was 8.68 µM; in data set [6], > 503 µM; in the data set on Plasmodium falciparum [1] it was 1.83 µM; with Hemozoin, 15.6 µM. In addition, the “Ratio IC50” value in the data set with Plasmodium falciparum [7] is 4.74. Moreover, in data set [8], the selectivity ratio is > 275.
Take `COC(=O)[C@H](C)NC(=O)Cn1cc(COc2cccc3ccccc23)nn1`: the result with Plasmodium falciparum [3] was Active.
Same read-out and setting: with `C[C@@H](NC(=O)Cn1cc(CN2CCN(c3ccnc4cc(Cl)ccc34)CC2)nn1)C(=O)O` the entry was “inactive”.
Take `Cc1ccc(NC(=O)Cn2cc(CN3CCN(c4ccnc5cc(Cl)ccc45)CC3)nn2)cc1`: the IC50 in the data set on Plasmodium falciparum [5] was 4.37 µM; in data set [6], 33.8 µM; in the data set on Plasmodium falciparum [1], 1.8 µM; in the data set with Hemozoin, 18.6 µM. Also, the “Ratio IC50” value in the data set with Plasmodium falciparum [7] came out at 2.4. In addition, in data set [8], the selectivity ratio was 18.8.
Turning to `O=C(Cn1cc(CN2CCN(c3ccnc4cc(Cl)ccc34)CC2)nn1)Nc1ccccc1[N+](=O)[O-]`, the IC50 was determined as 2.9 µM in the data set with Plasmodium falciparum [1] and 21.4 µM with Hemozoin.
In the case of `COC(=O)c1ccc(NC(=O)Cn2cc(CN3CCN(c4ccnc5cc(Cl)ccc45)CC3)nn2)cc1`, the IC50 in the data set with Plasmodium falciparum [1] is 4.14 µM; in the data set with Hemozoin, 12.7 µM.
Consider `O=[N+]([O-])c1cccc(-n2cc(CN3CCN(c4ccnc5cc(Cl)ccc45)CC3)nn2)c1`, for which the Activity in the data set with Plasmodium falciparum [4] is >50%.
Turning to `Cc1ccccc1NC(=O)Cn1cc(CN2CCN(c3ccnc4cc(Cl)ccc34)CC2)nn1`, the values for the IC50 in the data set on Plasmodium falciparum [1] and in the data set on Hemozoin were 4.17 µM and 17.4 µM, respectively.
As for `COC(=O)[C@H](C)NC(=O)Cn1cc(CN2CCN(c3ccnc4cc(Cl)ccc34)CC2)nn1`, in the data set on Plasmodium falciparum [11], the outcome was Active.
For the compound `O=C(Cn1cc(CN2CCN(c3ccnc4cc(Cl)ccc34)CC2)nn1)Nc1ccccc1F`, the results for the IC50 in the data set with Plasmodium falciparum [1] and in the data set with Hemozoin were 3.16 µM and 21.3 µM, respectively.
On to `Clc1ccc2c(N3CCN(Cc4cn(-c5ccccc5Cl)nn4)CC3)ccnc2c1`, for which the Activity in the data set with Plasmodium falciparum [4] is >50%.
Take `CCOC(=O)CNC(=O)Cn1cc(CN2CCN(c3ccnc4cc(Cl)ccc34)CC2)nn1`: the result with Plasmodium falciparum [3] was Active.
Same read-out and setting: then `COC(=O)[C@H](Cc1ccccc1)NC(=O)Cn1cc(CN2CCN(c3ccnc4cc(Cl)ccc34)CC2)nn1`, with “Active”.

One may read the IC50 as the midpoint of a concentration-inhibition curve. For orientation: Kd means the constant that tells how readily two partners part at equilibrium.
